From US11844801B2, “Oral compositions of MK2 pathway inhibitor for treatment of immune conditions” (priority 2020, dated 2023) come the findings set out here.

Usually IC50 stands for the point on the concentration scale where inhibition reaches its midpoint.

This test concerns IL-6. The experiment in a line: LPS stimulated IL-6 production in human whole blood. The class given is cell-based. The method, then:
Compounds were serially diluted in 100% DMSO (Sigma-Aldrich, D2650) followed by a 50× dilution into DMEM/10% FBS (Gibco, 11965/26140). Vehicle consisted of DMSO at a final assay concentration of 0.1%. Pin tools (V&P Scientific, Inc., VP246) were placed in the wells and the plate was placed at 37° C. with 5% CO2, with gently shaking for five minutes, then pin tools were removed and saved. […] Pin tools were placed in the wells in the same orientation as the previous step and gently shook for five minutes at 37° C. with 5% CO2, then removed. […] The plasma was harvested and assayed for TNF-α, IL-1β, and IL-6 using Meso Scale Discovery Technology V-plex human cytokine kits according to the kit protocol. The kit plates were read using an MSD Sector S 6000 instrument. Calculations to establish cytokine calibration curves and to determine analyte concentrations in the samples were carried out using the MSD DISCOVERY WORKBENCH® analysis software.

SMILES strings stand for the structures. Like-named read-outs stand apart in the source and are kept apart here.

Regarding `Cc1cnc(-c2ccnc(C(C)(C)O)n2)cc1-n1c(C)cc(OCc2ncc(F)cc2F)c(Cl)c1=O` (single isomer, unassigned) [ATI-450, 3-chloro-4-((3,5-difluoropyridin-2-yl)methoxy)-2′-(2-(2-hydroxypropan-2-yl)pyrimidin-4-yl)-5′,6-dimethyl-2H-[1,4′-bipyridin]-2-one], the IC50 is 135 ± 97 nM (Human Whole Blood, LPS, 100 ng/mL, 4 or 24 hr, read-out: IC50, IL-6) and 10 to 100 nM (human whole blood, LPS 100 ng/mL, read-out: IC50, LPS-stimulated IL-6).
